“Also recorded” adds a separate entry of the source. Square brackets hold non-standard residues; d marks the D form. Ends that are not written are not given here. Nap = naphthyl group, N-terminal cap; Aib = CC(C)(N)C(=O)O
Tested on: SARS-CoV-2 Omicron variant pseudovirus
Assay type: cell-based
Settings: for fluorescence of peptide groups versus no-peptide control: N=3

Substance	inhibition of SARS-CoV-2 Omicron pseudovirus infection / replication in mammalian cells	fluorescence of peptide groups versus no-peptide control
NapFFMLUFLMUMEKKKK (Nap-FFML[Aib]FLM[Aib]MEKKKK)	effectively inhibited viral replication; also recorded: significantly inhibited	statistically (p<0.01) less than
NapFFTLUFLTUTEKKKK (Nap-FFTL[Aib]FLT[Aib]TEKKKK)	effectively inhibited viral replication; also recorded: significantly inhibited	statistically (p<0.01) less than

— patent US11548919B1, “SARS-CoV-2 polypeptide inhibitors directed against the Env TM domain and methods of treatment using said inhibitors” (priority 2022, dated 2023)
